Laboratory results: patent US20240067693A1, “POLYPEPTIDES AND USES THEREOF” (MEDIMMUNE LIMITED, priority 2020, published 2024)
Numbered stars: 1 amine (or outer) side, 2 acyl side, 3 side chain; on linkers, the order of the positions; unused ones are H or OH. Bridge positions count the residues as written; N and C are the ends. Square brackets hold non-standard residues; d marks the D form. Side chains are listed from the residue outwards. Peptide text beside a SMILES is read from it. * marks the point of attachment. C18 diacid = O=C(O)CCCCCCCCCCCCCCCCC(=O)*; γGlu = O=C(O)[C@H](CCC(=O)[*:2])N[*:1]; Aib = CC(C)(N)C(=O)O

Assays:
[1] = target: T1, human amylin receptor (calcitonin receptor co-expressed with receptor activity modifying protein, RAMP3) (hAMYR3) (Homo sapiens, UniProt O60896+P30988); assay: cAMP production in 1321N1 cells with stable recombinant expression of human amylin receptor (hAMYR3); format: cell-based; conditions: for Ratio (selectivity hAMYR vs hCTR, ratio of EC50 values at the two receptors): EC50 hCTR / EC50 hAMYR3; for EC50: cAMP, 1321N1 cells, assay buffer with 0.1% BSA, read-out: EC50 (pM) hAMYR3
T1 construct: expressed in transfected cells
T1 sequence (P30988 25-474): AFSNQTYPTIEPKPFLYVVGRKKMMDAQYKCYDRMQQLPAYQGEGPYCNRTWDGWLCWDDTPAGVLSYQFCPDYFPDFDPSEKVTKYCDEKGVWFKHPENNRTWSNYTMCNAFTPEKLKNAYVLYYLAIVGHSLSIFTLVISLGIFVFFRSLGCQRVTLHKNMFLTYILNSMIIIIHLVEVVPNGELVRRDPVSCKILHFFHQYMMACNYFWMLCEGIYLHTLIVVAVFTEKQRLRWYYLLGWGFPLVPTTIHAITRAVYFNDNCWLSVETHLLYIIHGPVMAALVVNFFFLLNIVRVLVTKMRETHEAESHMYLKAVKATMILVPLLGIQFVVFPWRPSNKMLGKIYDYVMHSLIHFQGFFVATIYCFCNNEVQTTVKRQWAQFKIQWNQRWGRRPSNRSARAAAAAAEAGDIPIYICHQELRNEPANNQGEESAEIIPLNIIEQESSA
T1 sequence (O60896 24-148 partner): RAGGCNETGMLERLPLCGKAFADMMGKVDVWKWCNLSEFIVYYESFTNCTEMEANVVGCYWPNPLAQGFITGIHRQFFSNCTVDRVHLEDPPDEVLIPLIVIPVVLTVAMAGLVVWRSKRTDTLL
In short: (§1)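 Receptor-expressing cells (human receptors in 1321N1, rat receptors in HEK) incubated 30 min at room temperature with peptide in HBSS/HEPES pH 7.4, 0.1% BSA, 0.5 mM IBMX. cAMP read by HTRF; EC50 from 4-parameter fit as % of maximal amylin or calcitonin response.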

[2] = target: T2, human calcitonin receptor (hCTR) (Homo sapiens, UniProt P30988); assay: cAMP production in 1321N1 cells with stable recombinant expression of human calcitonin receptor (hCTR); format: cell-based; conditions: cAMP, 1321N1 cells, assay buffer with 0.1% BSA; read-out: EC50 (pM) hCTR
T2 construct: expressed in transfected cells
T2 sequence (P30988 25-474): T1 sequence (P30988 25-474)
In short: as §1

Ratio (selectivity hAMYR vs hCTR, ratio of EC50 values at the two receptors) [1]	EC50 [1]	EC50 [2]	Compound
6	322 pM	1900 pM	CC(C)C[C@H](NC(=O)[C@H](CCCNC(=N)N)NC(=O)[C@H](CCC(N)=O)NC(=O)[C@@H](NC(=O)[C@H](C)NC(=O)[C@@H]1CSSC[C@H](NC(=O)[C@H](CCCCN)NC(=O)[C@@H](N)CCCCNC(=O)CC[C@H](NC(=O)CCCCCCCCCCCCCCCCC(=O)O)C(=O)O)C(=O)N[C@@H](CC(N)=O)C(=O)N[C@@H]([C@@H](C)O)C(=O)N[C@@H](C)C(=O)N[C@@H]([C@@H](C)O)C(=O)N1)[C@@H](C)O)C(=O)N[C@@H](C)C(=O)N[C@@H](CC(N)=O)C(=O)N[C@@H](Cc1ccccc1)C(=O)N[C@@H](CC(C)C)C(=O)NC(C)(C)C(=O)N[C@@H](Cc1c[nH]cn1)C(=O)N[C@@H](CO)C(=O)N[C@@H](CO)C(=O)N[C@@H](CC(N)=O)C(=O)N[C@@H](CC(N)=O)C(=O)N[C@@H](Cc1ccccc1)C(=O)NCC(=O)N1CCC[C@H]1C(=O)NC(C)(C)C(=O)N[C@@H](CC(C)C)C(=O)N1CCC[C@H]1C(=O)N1CCC[C@H]1C(=O)N[C@H](C(=O)N[C@@H](CC(N)=O)C(=O)N[C@H](C(=O)NCC(=O)N[C@@H](CO)C(=O)N[C@@H](CC(N)=O)C(=O)N[C@H](C(=O)N[C@@H](Cc1ccc(O)cc1)C(N)=O)[C@@H](C)O)C(C)C)[C@@H](C)O [Peptide 94, K(γE-C18diacid)K[CNTATC]ATQRLANFL(Aib)HSSNNFGP(Aib)LPPTNVGSNTY-amide] (H-K([γGlu-C18 diacid])KCNTATCATQRLANFL[Aib]HSSNNFGP[Aib]LPPTNVGSNTY-NH2; disulfide 3-8; N-terminus assumed)
2	691 pM	1170 pM	CC[C@H](C)[C@H](NC(=O)[C@@H]1CCCN1C(=O)CNC(=O)[C@H](Cc1ccccc1)NC(=O)[C@H](CC(N)=O)NC(=O)[C@H](CC(N)=O)NC(=O)[C@H](CO)NC(=O)[C@H](CO)NC(=O)[C@H](Cc1c[nH]cn1)NC(=O)C(C)(C)NC(=O)[C@H](CC(C)C)NC(=O)[C@H](Cc1ccccc1)NC(=O)[C@H](CC(N)=O)NC(=O)[C@H](C)NC(=O)[C@H](CC(C)C)NC(=O)[C@H](CCCNC(=N)N)NC(=O)[C@H](CCC(N)=O)NC(=O)[C@@H](NC(=O)[C@H](C)NC(=O)[C@@H]1CSSC[C@H](NC(=O)[C@H](CCCCN)NC(=O)[C@@H](N)CCCCNC(=O)CC[C@H](NC(=O)CCCCCCCCCCCCCCCCC(=O)O)C(=O)O)C(=O)N[C@@H](CC(N)=O)C(=O)N[C@@H]([C@@H](C)O)C(=O)N[C@@H](C)C(=O)N[C@@H]([C@@H](C)O)C(=O)N1)[C@@H](C)O)C(=O)NC(C)(C)C(=O)N1CCC[C@H]1C(=O)N1CCC[C@H]1C(=O)N[C@H](C(=O)N[C@@H](CC(N)=O)C(=O)N[C@H](C(=O)NCC(=O)N[C@@H](CO)C(=O)N[C@@H](CC(N)=O)C(=O)N[C@H](C(=O)N[C@@H](Cc1ccc(O)cc1)C(N)=O)[C@@H](C)O)C(C)C)[C@@H](C)O [Peptide 95, K(γE-C18diacid)K[CNTATC]ATQRLANFL(Aib)HSSNNFGPI(Aib)PPTNVGSNTY-amide] (H-K([γGlu-C18 diacid])KCNTATCATQRLANFL[Aib]HSSNNFGPI[Aib]PPTNVGSNTY-NH2; disulfide 3-8)
2	556 pM	859 pM	CC[C@H](C)[C@H](NC(=O)[C@@H]1CCCN1C(=O)CNC(=O)[C@H](Cc1ccccc1)NC(=O)[C@H](CC(N)=O)NC(=O)[C@H](CC(N)=O)NC(=O)[C@H](CO)NC(=O)[C@H](CO)NC(=O)[C@H](Cc1c[nH]cn1)NC(=O)C(C)(C)NC(=O)[C@H](CC(C)C)NC(=O)[C@H](Cc1ccccc1)NC(=O)[C@H](CC(N)=O)NC(=O)[C@H](C)NC(=O)[C@H](CC(C)C)NC(=O)[C@H](CCCNC(=N)N)NC(=O)[C@H](CCC(N)=O)NC(=O)[C@@H](NC(=O)[C@H](C)NC(=O)[C@@H]1CSSC[C@H](NC(=O)[C@H](CCCCN)NC(=O)[C@@H](N)CCCCNC(=O)CC[C@H](NC(=O)CCCCCCCCCCCCCCCCC(=O)O)C(=O)O)C(=O)N[C@@H](CC(N)=O)C(=O)N[C@@H]([C@@H](C)O)C(=O)N[C@@H](C)C(=O)N[C@@H]([C@@H](C)O)C(=O)N1)[C@@H](C)O)C(=O)N[C@@H](CC(C)C)C(=O)NC(C)(C)C(=O)N1CCC[C@H]1C(=O)N[C@H](C(=O)N[C@@H](CC(N)=O)C(=O)N[C@H](C(=O)NCC(=O)N[C@@H](CO)C(=O)N[C@@H](CC(N)=O)C(=O)N[C@H](C(=O)N[C@@H](Cc1ccc(O)cc1)C(N)=O)[C@@H](C)O)C(C)C)[C@@H](C)O [Peptide 96, K(γE-C18diacid)K[CNTATC]ATQRLANFL(Aib)HSSNNFGPIL(Aib)PTNVGSNTY-amide] (H-K([γGlu-C18 diacid])KCNTATCATQRLANFL[Aib]HSSNNFGPIL[Aib]PTNVGSNTY-NH2; disulfide 3-8; N-terminus assumed)
1	684 pM	944 pM	CC[C@H](C)[C@H](NC(=O)[C@@H]1CCCN1C(=O)CNC(=O)[C@H](Cc1ccccc1)NC(=O)[C@H](CC(N)=O)NC(=O)[C@H](CC(N)=O)NC(=O)[C@H](CO)NC(=O)[C@H](CO)NC(=O)[C@H](Cc1c[nH]cn1)NC(=O)C(C)(C)NC(=O)[C@H](CC(C)C)NC(=O)[C@H](Cc1ccccc1)NC(=O)[C@H](CC(N)=O)NC(=O)[C@H](C)NC(=O)[C@H](CC(C)C)NC(=O)[C@H](CCCNC(=N)N)NC(=O)[C@H](CCC(N)=O)NC(=O)[C@@H](NC(=O)[C@H](C)NC(=O)[C@@H]1CSSC[C@H](NC(=O)[C@H](CCCCN)NC(=O)[C@@H](N)CCCCNC(=O)CC[C@H](NC(=O)CCCCCCCCCCCCCCCCC(=O)O)C(=O)O)C(=O)N[C@@H](CC(N)=O)C(=O)N[C@@H]([C@@H](C)O)C(=O)N[C@@H](C)C(=O)N[C@@H]([C@@H](C)O)C(=O)N1)[C@@H](C)O)C(=O)N[C@@H](CC(C)C)C(=O)N1CCC[C@H]1C(=O)NC(C)(C)C(=O)N[C@H](C(=O)N[C@@H](CC(N)=O)C(=O)N[C@H](C(=O)NCC(=O)N[C@@H](CO)C(=O)N[C@@H](CC(N)=O)C(=O)N[C@H](C(=O)N[C@@H](Cc1ccc(O)cc1)C(N)=O)[C@@H](C)O)C(C)C)[C@@H](C)O [Peptide 97, K(γE-C18diacid)K[CNTATC]ATQRLANFL(Aib)HSSNNFGPILP(Aib)TNVGSNTY-amide] (H-K([γGlu-C18 diacid])KCNTATCATQRLANFL[Aib]HSSNNFGPILP[Aib]TNVGSNTY-NH2; disulfide 3-8; N-terminus assumed)
